These compounds were tested against T1, CIB1 and αIIb interaction (CIB1-GST : F-αIIb peptide) (Homo sapiens, UniProt Q99828) (assay: FP assay, 1536-well qHTS format (primary and confirmatory screen)). Details: Table S3, confirmatory screen, qHTS curve class; a negative sign marks inhibitory curves.
T1 construct: made in house; host or cells: BL-21 plus RIL cells (E. coli)
T1 sequence (Q99828 1-191): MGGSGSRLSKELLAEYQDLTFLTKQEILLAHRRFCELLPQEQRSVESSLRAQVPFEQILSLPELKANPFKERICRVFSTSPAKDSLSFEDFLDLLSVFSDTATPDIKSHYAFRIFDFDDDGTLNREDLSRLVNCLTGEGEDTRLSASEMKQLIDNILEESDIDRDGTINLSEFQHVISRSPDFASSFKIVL
Assay type: binding

First: O=C(O)C(F)(F)F.O=C1Nc2ccccc2/C1=N/NC(=S)NCc1ccccc1 [NCGC00229543-01]
Second: Cc1ccc(OCCn2c(CCNC(=O)c3ccsc3)nc3ccccc32)cc1.O=C(O)C(F)(F)F [NCGC00238707-01]
The “Curve Class (confirmatory screen)” value of the first is higher: 4 for the first, 3 for the second.

`CN(CC(=O)Nc1ccc(N2CCOCC2)cc1)Cc1c(O)ccc2ccccc12.O=C(O)C(F)(F)F` [NCGC00229682-01] and `NC(=O)c1cccc(-c2cnc3c(O)ccc(C(=O)O)c3c2)c1.O=C(O)C(F)(F)F` [NCGC00241055-01] are the same in “Curve Class (confirmatory screen)” value: 4 for the first, 4 for the second.

`O=C(O)C(F)(F)F.O=C1CCCC2=C1C(c1ccn[nH]1)N=C(Nc1nc3ccccc3o1)N2` (stereo not drawn) [NCGC00229725-01] was tested, and the “Curve Class (confirmatory screen)” value was 4.

Same assay, conditions: Table S3, confirmatory screen; negative = inhibition

Compared with `O=C(O)C(F)(F)F.O=C1Nc2ccccc2/C1=N/NC(=S)NCc1ccccc1` [NCGC00229543-01], `Cc1ccc(OCCn2c(CCNC(=O)c3ccsc3)nc3ccccc32)cc1.O=C(O)C(F)(F)F` [NCGC00238707-01] is higher in “Efficacy (%) (confirmatory screen)” value: -33% for the first, 35% for the second.

Going from `CN(CC(=O)Nc1ccc(N2CCOCC2)cc1)Cc1c(O)ccc2ccccc12.O=C(O)C(F)(F)F` [NCGC00229682-01] to `NC(=O)c1cccc(-c2cnc3c(O)ccc(C(=O)O)c3c2)c1.O=C(O)C(F)(F)F` [NCGC00241055-01], the “Efficacy (%) (confirmatory screen)” value rises from -47% to -31%.

`O=C(O)C(F)(F)F.O=C1CCCC2=C1C(c1ccn[nH]1)N=C(Nc1nc3ccccc3o1)N2` (stereo not drawn) [NCGC00229725-01] was tested, and the “Efficacy (%) (confirmatory screen)” value was -29%.

Same assay, conditions: qHTS primary screen hits, Table S2; negative = inhibition

Compared with `O=C(O)C(F)(F)F.O=C1Nc2ccccc2/C1=N/NC(=S)NCc1ccccc1` [NCGC00229543-01], `Cc1ccc(OCCn2c(CCNC(=O)c3ccsc3)nc3ccccc32)cc1.O=C(O)C(F)(F)F` [NCGC00238707-01] is higher in “Efficacy (%)” value: -24% for the first, -22% for the second.

First: CN(CC(=O)Nc1ccc(N2CCOCC2)cc1)Cc1c(O)ccc2ccccc12.O=C(O)C(F)(F)F [NCGC00229682-01]
Second: NC(=O)c1cccc(-c2cnc3c(O)ccc(C(=O)O)c3c2)c1.O=C(O)C(F)(F)F [NCGC00241055-01]
The “Efficacy (%)” value of the first is lower: -68% for the first, -35% for the second.

In the case of `O=C(O)C(F)(F)F.O=C1CCCC2=C1C(c1ccn[nH]1)N=C(Nc1nc3ccccc3o1)N2` (stereo not drawn) [NCGC00229725-01], the “Efficacy (%)” value is reported as -32%.

Same assay, conditions: qHTS primary screen hits, Table S2; negative sign = inhibitory curve

Compared with `O=C(O)C(F)(F)F.O=C1CCCC2=C1C(c1ccn[nH]1)N=C(Nc1nc3ccccc3o1)N2` (stereo not drawn) [NCGC00229725-01], `NC(=O)c1cccc(-c2cnc3c(O)ccc(C(=O)O)c3c2)c1.O=C(O)C(F)(F)F` [NCGC00241055-01] is lower in “Curve Class” value: -2.2 for the first, -2.4 for the second.

Same assay, conditions: qHTS primary screen hits, Table S2; negative sign = inhibitory curve; several classes where COUNT > 1

`O=C(O)C(F)(F)F.O=C1Nc2ccccc2/C1=N/NC(=S)NCc1ccccc1` [NCGC00229543-01] and `Cc1ccc(OCCn2c(CCNC(=O)c3ccsc3)nc3ccccc32)cc1.O=C(O)C(F)(F)F` [NCGC00238707-01] are the same in “Curve Class” value: -1.4 for the first, -1.4 for the second.

In the case of `CN(CC(=O)Nc1ccc(N2CCOCC2)cc1)Cc1c(O)ccc2ccccc12.O=C(O)C(F)(F)F` [NCGC00229682-01], the “Curve Class” value is reported as -2.2.

Same assay, conditions: qHTS primary screen hits, Table S2; read-out: IC50

`O=C(O)C(F)(F)F.O=C1Nc2ccccc2/C1=N/NC(=S)NCc1ccccc1` [NCGC00229543-01] and `Cc1ccc(OCCn2c(CCNC(=O)c3ccsc3)nc3ccccc32)cc1.O=C(O)C(F)(F)F` [NCGC00238707-01] are within 1.5-fold of each other in IC50: 7.9 µM for the first, 11.2 µM for the second.

`CN(CC(=O)Nc1ccc(N2CCOCC2)cc1)Cc1c(O)ccc2ccccc12.O=C(O)C(F)(F)F` [NCGC00229682-01] and `NC(=O)c1cccc(-c2cnc3c(O)ccc(C(=O)O)c3c2)c1.O=C(O)C(F)(F)F` [NCGC00241055-01] are within 1.5-fold of each other in IC50: 39.8 µM for the first, 31.6 µM for the second.

In the case of `O=C(O)C(F)(F)F.O=C1CCCC2=C1C(c1ccn[nH]1)N=C(Nc1nc3ccccc3o1)N2` (stereo not drawn) [NCGC00229725-01], the IC50 is reported as 25.1 µM.

What follows are compounds tested against T2, GST-CIB1 : F-scrambled peptide (Homo sapiens, UniProt Q99828) (assay: FP scrambled-peptide counter screen, 1536-well format). Details: Table S3, counterscreen, YES/NO call.
T2 construct: made in house; host or cells: BL-21 plus RIL cells (E. coli)
T2 sequence (Q99828 1-191): T1 sequence (Q99828 1-191)
Assay type: binding

`CN(CC(=O)Nc1ccc(N2CCOCC2)cc1)Cc1c(O)ccc2ccccc12.O=C(O)C(F)(F)F` [NCGC00229682-01] was tested, and the “Confirm? (counterscreen)” value was “YES”.
In the case of `NC(=O)c1cccc(-c2cnc3c(O)ccc(C(=O)O)c3c2)c1.O=C(O)C(F)(F)F` [NCGC00241055-01], the “Confirm? (counterscreen)” value is reported as “YES”.

Same assay, conditions: Table S3, counterscreen, qHTS curve class; a negative sign marks inhibitory curves

Compared with `O=C(O)C(F)(F)F.O=C1Nc2ccccc2/C1=N/NC(=S)NCc1ccccc1` [NCGC00229543-01], `CN(CC(=O)Nc1ccc(N2CCOCC2)cc1)Cc1c(O)ccc2ccccc12.O=C(O)C(F)(F)F` [NCGC00229682-01] is lower in “Curve Class (counterscreen)” value: 4 for the first, -2.2 for the second.

First: O=C(O)C(F)(F)F.O=C1CCCC2=C1C(c1ccn[nH]1)N=C(Nc1nc3ccccc3o1)N2 (stereo not drawn) [NCGC00229725-01]
Second: NC(=O)c1cccc(-c2cnc3c(O)ccc(C(=O)O)c3c2)c1.O=C(O)C(F)(F)F [NCGC00241055-01]
The “Curve Class (counterscreen)” value of the first is higher: 4 for the first, -2.4 for the second.

Same assay, conditions: Table S3, counterscreen; negative = inhibition

Compared with `O=C(O)C(F)(F)F.O=C1Nc2ccccc2/C1=N/NC(=S)NCc1ccccc1` [NCGC00229543-01], `Cc1ccc(OCCn2c(CCNC(=O)c3ccsc3)nc3ccccc32)cc1.O=C(O)C(F)(F)F` [NCGC00238707-01] is higher in “Efficacy (%) (counterscreen)” value: -27% for the first, 109% for the second.

Going from `CN(CC(=O)Nc1ccc(N2CCOCC2)cc1)Cc1c(O)ccc2ccccc12.O=C(O)C(F)(F)F` [NCGC00229682-01] to `NC(=O)c1cccc(-c2cnc3c(O)ccc(C(=O)O)c3c2)c1.O=C(O)C(F)(F)F` [NCGC00241055-01], the “Efficacy (%) (counterscreen)” value rises from -57% to -42%.

For `O=C(O)C(F)(F)F.O=C1CCCC2=C1C(c1ccn[nH]1)N=C(Nc1nc3ccccc3o1)N2` (stereo not drawn) [NCGC00229725-01], the “Efficacy (%) (counterscreen)” value was -32%.

Same assay, conditions: Table S3, counterscreen; read-out: IC50 [μM] (counterscreen)

`CN(CC(=O)Nc1ccc(N2CCOCC2)cc1)Cc1c(O)ccc2ccccc12.O=C(O)C(F)(F)F` [NCGC00229682-01] and `Cc1ccc(OCCn2c(CCNC(=O)c3ccsc3)nc3ccccc32)cc1.O=C(O)C(F)(F)F` [NCGC00238707-01] are within 1.5-fold of each other in IC50: 70.8 µM for the first, 50.1 µM for the second.

Work on `NC(=O)c1cccc(-c2cnc3c(O)ccc(C(=O)O)c3c2)c1.O=C(O)C(F)(F)F` [NCGC00241055-01] yielded an IC50 of 35.5 µM.

Source: publication PMC11249646, “Small-Molecule Disruptors of the Interaction between Calcium- and Integrin-Binding Protein 1 and Integrin αIIbβ3 as Novel Antiplatelet Agents” (ACS Pharmacology & Translational Science, 2024)
